{
  "source": "patent US7022687B1",
  "about": "“Combination of loteprednol and antihistamines” (Asta Medica AG, priority 1999, dated 2006)",
  "key": {"[1]": {"tested_on": "young domestic pigs actively sensitized with an antigen (extract from Ascaris suum)", "assay": "Allergen-induced nasal secretion (rhinorrhea) in Ascaris-sensitized young domestic pigs", "format": "in vivo", "conditions": "for Inhibition of nasal secretion: intranasal Ascaris allergen challenge, pigs", "procedure": "In vivo investigations were carried out on young domestic pigs actively sensitized with an antigen (extract from Ascaris suum). Three weeks later, they were exposed to allergen challenge, which was carried out by intranasal instillation of the Ascaris extract. This local intranasal allergen challenge leads to a very great increase in the nasal secretion (rhinorrhea). The amount of secretion was determined gravimetrically."}, "TNFα release": {"tested_on": "TNFα release", "assay": "LPS-induced TNFα release in diluted human blood (ELISA)", "format": "cell-based", "procedure": "In vitro, investigations on the influencing of the release of the proinflammatory cytokine TNFα in human blood of various donors diluted 1:5 were carried out. The stimulation was effected using lipopolysaccharide (LPS) from Salmonella abortus equi (10 μg/ml) over the course of 24 h at 37° C. and 5% CO2 in an incubator. The TNFα release was determined using an ELISA, based on antibodies from Pharmingen."}, "[2]": {"conditions": "cited from earlier work"}},
  "data": [
    {"smiles": "CN1CCCC(n2nc(Cc3ccc(Cl)cc3)c3ccccc3c2=O)CC1", "note": "(stereo not drawn) [Azelastine]", "values": [
      {"measurement": "Inhibition of nasal secretion", "setting": "[1]; azelastine 10 μg/nostril", "result": 15, "unit": "%"},
      {"measurement": "Inhibition of the allergically induced nasal hypersecretion (in words)", "setting": "[1]; used alone at 10 or 20 μg/nostril", "result": "only marginal inhibition"},
      {"measurement": "LPS-induced TNFα release (in words)", "setting": "TNFα release; administered alone", "result": "remains virtually unchanged"},
      {"measurement": "inhibition at 10 µM", "setting": "TNFα release; azelastine 10 μmol/l, human blood diluted 1:5, LPS 10 μg/ml, 24 h", "result": 2, "unit": "%"}
    ]},
    {"smiles": "CCOC(=O)O[C@]1(C(=O)OCCl)CC[C@H]2[C@@H]3CCC4=CC(=O)C=C[C@]4(C)[C@H]3[C@@H](O)C[C@@]21C", "note": "[Loteprednol etabonate]", "values": [
      {"measurement": "Water solubility", "setting": "[2]", "result": "virtually water-insoluble"}
    ]},
    {"smiles": "CCOC(=O)O[C@]1(C(=O)OCCl)CC[C@H]2[C@@H]3CCC4=CC(=O)C=C[C@]4(C)[C@H]3[C@@H](O)C[C@@]21C", "note": "[Loteprednol]", "values": [
      {"measurement": "Inhibition of nasal secretion", "setting": "[1]; loteprednol 20 μg/nostril", "result": 8, "unit": "%"},
      {"measurement": "inhibition at 0.001 µM", "setting": "TNFα release; loteprednol 0.001 μmol/l, human blood diluted 1:5, LPS 10 μg/ml, 24 h", "result": 1, "unit": "%"},
      {"measurement": "inhibition at 0.01 µM", "setting": "TNFα release; loteprednol 0.01 μmol/l, human blood diluted 1:5, LPS 10 μg/ml, 24 h", "result": 2, "unit": "%"},
      {"measurement": "inhibition at 0.03 µM", "setting": "TNFα release; loteprednol 0.03 μmol/l, human blood diluted 1:5, LPS 10 μg/ml, 24 h", "result": 8, "unit": "%"}
    ]}
  ]
}
